Experimental data published in ChEMBL document CHEMBL3045001, “Synthesis and evaluation of analgesic, anti-inflammatory, and anticancer activities of new pyrazole-3(5)-carboxylic acid derivatives” (Med Chem Res, 2013).

What was measured:
Mus musculus [1] = experiment: Anti-inflammatory activity in carrageenan-induced Mus musculus Swiss albino (mouse) paw edema model assessed as paw swelling at 100 mg/kg, sc administered 30 min prior to carrageenan injection measured after 90 min (reference value: 38.0 +/-2.0 x10'-2 mm); format: functional; conditions: route subcutaneous
Raji [2] = experiment: Anticancer activity against Homo sapiens (human) Raji cells assessed as cell viability at 50 uM after 48 hr by MTT assay (reference value: 100 +/-4.26%); format: functional; conditions: read-out: Activity
HeLa [3] = experiment: Anticancer activity against Homo sapiens (human) HeLa cells assessed as inhibition of cell viability by MTT assay; format: functional, cell-based
HeLa [4] = experiment: Anticancer activity against Homo sapiens (human) HeLa cells assessed as cell viability at 50 uM after 48 hr by MTT assay (reference value: 100 +/-3.8%); format: functional; conditions: read-out: Activity
MCF7 [5] = experiment: Anticancer activity against Homo sapiens (human) MCF7 cells assessed as cell viability at 50 uM after 24 hr by MTT assay (reference value: 100 +/-2.74%); format: functional; conditions: MCF7, 24 h, read-out: Activity
Mus musculus [6] = experiment: Anti-inflammatory activity in carrageenan-induced Mus musculus Swiss albino (mouse) paw edema model assessed as paw swelling at 100 mg/kg, sc administered 30 min prior to carrageenan injection measured after 180 min (reference value: 51.0 +/-3.0 x10'-2 mm); format: functional; conditions: route subcutaneous
Mus musculus [7] = experiment: Anti-inflammatory activity in carrageenan-induced Mus musculus Swiss albino (mouse) paw edema model assessed as inhibition of paw edema at 100 mg/kg, sc administered 30 min prior to carrageenan injection measured after 90 min; format: functional; conditions: route subcutaneous
Raji [8] = experiment: Anticancer activity against Homo sapiens (human) Raji cells assessed as cell viability at 50 uM after 24 hr by MTT assay (reference value: 100 +/-5.02%); format: functional; conditions: read-out: Activity
Mus musculus [9] = organism: Mus musculus; experiment: Acute toxicity against Mus musculus Swiss albino (mouse) assessed as morbidity after 48 hr; format: organism-based; conditions: in vivo
Mus musculus [10] = organism: Mus musculus; experiment: Acute toxicity against Mus musculus Swiss albino (mouse) assessed as mortality after 48 hr; format: organism-based; conditions: in vivo
HeLa [11] = experiment: Anticancer activity against Homo sapiens (human) HeLa cells assessed as cell viability at 50 uM after 24 hr by MTT assay (reference value: 100 +/-4.13%); format: functional; conditions: read-out: Activity
HL-60 [12] = experiment: Anticancer activity against Homo sapiens (human) HL60 cells assessed as cell viability at 50 uM after 24 hr by MTT assay (reference value: 100 +/-3.55%); format: functional; conditions: HL-60, 24 h, read-out: Activity
MCF7 [13] = experiment: Anticancer activity against Homo sapiens (human) MCF7 cells assessed as cell viability at 50 uM after 48 hr by MTT assay (100 +/-5.08%); format: functional; conditions: MCF7, 48 h, read-out: Activity
Mus musculus [14] = experiment: Anti-inflammatory activity in carrageenan-induced Mus musculus Swiss albino (mouse) paw edema model assessed as paw swelling at 100 mg/kg, sc administered 30 min prior to carrageenan injection measured after 270 min (rvb = 75.0 +/-3.0 x10'-2 mm); format: functional; conditions: route subcutaneous
Mus musculus [15] = experiment: Anti-inflammatory activity in carrageenan-induced Mus musculus Swiss albino (mouse) paw edema model assessed as paw swelling at 100 mg/kg, sc administered 30 min prior to carrageenan injection measured after 360 min (reference value: 77.0 +/-3.0 x10'-2 mm); format: functional; conditions: route subcutaneous
MDA-MB-231 [16] = experiment: Anticancer activity against Homo sapiens (human) estrogen-independent MDA-MB-231 cells assessed as cell viability at 50 uM after 48 hr by MTT assay (reference value: 100 +/-3.71%); format: functional; conditions: MDA-MB-231, 48 h, read-out: Activity
HL-60 [17] = experiment: Anticancer activity against Homo sapiens (human) HL60 cells assessed as cell viability at 50 uM after 48 hr by MTT assay (reference value: 100 +/-8.41%); format: functional; conditions: HL-60, 48 h, read-out: Activity
Mus musculus [18] = experiment: Anti-inflammatory activity in carrageenan-induced Mus musculus Swiss albino (mouse) paw edema model assessed as inhibition of paw edema at 100 mg/kg, sc administered 30 min prior to carrageenan injection measured after 360 min; format: functional; conditions: route subcutaneous
Mus musculus [19] = experiment: Anti-inflammatory activity in carrageenan-induced Mus musculus Swiss albino (mouse) paw edema model assessed as inhibition of paw edema at 100 mg/kg, sc administered 30 min prior to carrageenan injection measured after 180 min; format: functional; conditions: route subcutaneous
MDA-MB-231 [20] = experiment: Anticancer activity against Homo sapiens (human) estrogen-independent MDA-MB-231 cells assessed as cell viability at 50 uM after 24 hr by MTT assay (reference value: 100 +/-7.08%); format: functional; conditions: MDA-MB-231, 24 h, read-out: Activity
Mus musculus [21] = experiment: Anti-inflammatory activity in carrageenan-induced Mus musculus Swiss albino (mouse) paw edema model assessed as inhibition of paw edema at 100 mg/kg, sc administered 30 min prior to carrageenan injection measured after 270 min; format: functional; conditions: route subcutaneous
Mus musculus [22] = experiment: Analgesic activity in Mus musculus Swiss albino (mouse) assessed as inhibition of p-benzoquinone-induced abdominal writhing at 100 mg/kg, sc administered 30 min prior to PBQ injection measured after 5 min for 15 min; format: functional, Abdomen; design: scale not given: the % may be the effect or the level left; conditions: route subcutaneous
HL-60 [23] = experiment: Anticancer activity against Homo sapiens (human) HL60 cells assessed as inhibition of cell viability by MTT assay; format: functional, cell-based
Mus musculus [24] = experiment: Anti-inflammatory activity in carrageenan-induced Mus musculus Swiss albino (mouse) paw edema model assessed as inhibition of paw edema at 10 mg/kg, sc administered 30 min prior to carrageenan injection measured after 180 min; format: functional; conditions: route subcutaneous
Mus musculus [25] = experiment: Anti-inflammatory activity in carrageenan-induced Mus musculus Swiss albino (mouse) paw edema model assessed as inhibition of paw edema at 10 mg/kg, sc administered 30 min prior to carrageenan injection measured after 360 min; format: functional; conditions: route subcutaneous
Mus musculus [26] = experiment: Anti-inflammatory activity in carrageenan-induced Mus musculus Swiss albino (mouse) paw edema model assessed as paw swelling at 10 mg/kg, sc administered 30 min prior to carrageenan injection measured after 180 min (reference value: 51.0 +/-3.0 x10'-2 mm); format: functional; conditions: route subcutaneous
Mus musculus [27] = experiment: Anti-inflammatory activity in carrageenan-induced Mus musculus Swiss albino (mouse) paw edema model assessed as inhibition of paw edema at 10 mg/kg, sc administered 30 min prior to carrageenan injection measured after 90 min; format: functional; conditions: route subcutaneous
Mus musculus [28] = experiment: Anti-inflammatory activity in carrageenan-induced Mus musculus Swiss albino (mouse) paw edema model assessed as paw swelling at 10 mg/kg, sc administered 30 min prior to carrageenan injection measured after 360 min (reference value: 77.0 +/-3.0 x10'-2 mm); format: functional; conditions: route subcutaneous
Mus musculus [29] = experiment: Anti-inflammatory activity in carrageenan-induced Mus musculus Swiss albino (mouse) paw edema model assessed as paw swelling at 10 mg/kg, sc administered 30 min prior to carrageenan injection measured after 90 min (reference value: 38.0 +/-2.0 x10'-2 mm); format: functional; conditions: route subcutaneous
Mus musculus [30] = experiment: Anti-inflammatory activity in carrageenan-induced Mus musculus Swiss albino (mouse) paw edema model assessed as inhibition of paw edema at 10 mg/kg, sc administered 30 min prior to carrageenan injection measured after 270 min; format: functional; conditions: route subcutaneous
Mus musculus [31] = experiment: Anti-inflammatory activity in carrageenan-induced Mus musculus Swiss albino (mouse) paw edema model assessed as paw swelling at 10 mg/kg, sc administered 30 min prior to carrageenan injection measured after 270 min (reference value: 75.0 +/-3.0 x10'-2 mm); format: functional; conditions: route subcutaneous

| SMILES | Activity (Mus musculus [1]) [×10⁻² mm] | viability at 50 µM (Raji [2]) [%] | viability at 50 µM (HeLa [4]) [%] | viability at 50 µM (MCF7 [5]) [%] | Activity (Mus musculus [6]) [×10⁻² mm] | inhibition in vivo at 100 mg/kg (Mus musculus [7]) [%] | viability at 50 µM (Raji [8]) [%] | Activity (Mus musculus [9]) | Activity (Mus musculus [10]) | viability at 50 µM (HeLa [11]) [%] | viability at 50 µM (HL-60 [12]) [%] | viability at 50 µM (MCF7 [13]) [%] | Activity (Mus musculus [14]) [×10⁻² mm] | Activity (Mus musculus [15]) [×10⁻² mm] | viability at 50 µM (MDA-MB-231 [16]) [%] | viability at 50 µM (HL-60 [17]) [%] | inhibition in vivo at 100 mg/kg (Mus musculus [18]) [%] | inhibition in vivo at 100 mg/kg (Mus musculus [19]) [%] | viability at 50 µM (MDA-MB-231 [20]) [%] | inhibition in vivo at 100 mg/kg (Mus musculus [21]) [%] | also measured |
| --- | --- | --- | --- | --- | --- | --- | --- | --- | --- | --- | --- | --- | --- | --- | --- | --- | --- | --- | --- | --- | --- |
| Cc1ccc(-c2cc(C(=O)Oc3ccc(-n4ccnc4)cc3)n(Cc3ccccc3)n2)cc1 | 35 | 106 | 33.9 | 67.6 | 43 | 6.6 | 96.5 | Non-toxic | Non-toxic | 36.7 | 108 | 52.4 | 61.6 | 62 | 24.4 | 121 | 18.8 | 15.4 | 33.1 | 19.2 | IC50 (HeLa [3]): 30.4 µM; Activity (Mus musculus [22]): 14.9% |
| Cc1ccc(-c2cc(C(=O)N3CCN(Cc4ccc(C(C)C)cc4)CC3)nn2Cc2ccccc2)cc1 | 34 | 29.6 | 34.5 | 51.4 | 28 | 8.9 | 44.4 | Non-toxic | Non-toxic | 52.5 | 11.9 | 56.7 | 31 | 28 | 41.1 | 15.5 | 63.4 | 46.3 | 67.2 | 58.9 | IC50 (HeLa [3]): 30.5 µM; IC50 (HL-60 [23]): 24.4 µM; Activity (Mus musculus [22]): 59.2% |
| Cc1ccc(-c2cc(C(=O)Oc3ccc(C(C)(C)C)cc3)nn2Cc2ccccc2)cc1 | 28 | 95.3 | 62.1 | 90.9 | 37 | 26 | 111 | Non-toxic | Non-toxic | 118 | 134 | 92.4 | 34 | 32 | 70.5 | 69.7 | 58.7 | 28.5 | 93.7 | 54 | Activity (Mus musculus [22]): 73.4% |
| CCOC(=O)C1CCN(C(=O)c2cc(-c3ccc(C)cc3)nn2Cc2ccccc2)CC1 | 28 | 97.3 | 49.9 | 54.2 | 34 | 26.7 | 77 | Non-toxic | Non-toxic | 53.5 | 102 | 88.2 | 34 | 33 | 64 | 91.7 | 57.6 | 33.3 | 96.5 | 54.4 | Activity (Mus musculus [22]): 77% |
| COc1ccc2c(c1)c(CC(=O)O)c(C)n2C(=O)c1ccc(Cl)cc1 [INDOMETHACIN] |  |  |  |  |  |  |  |  |  |  |  |  |  |  |  |  |  |  |  |  | inhibition in vivo at 10 mg/kg (Mus musculus [24]): 31.7%; inhibition in vivo at 10 mg/kg (Mus musculus [25]): 45.7%; Activity (Mus musculus [26]): 35 ×10⁻² mm; inhibition in vivo at 10 mg/kg (Mus musculus [27]): 15.5%; Activity (Mus musculus [28]): 42 ×10⁻² mm; Activity (Mus musculus [29]): 32 ×10⁻² mm; inhibition in vivo at 10 mg/kg (Mus musculus [30]): 45.6%; Activity (Mus musculus [31]): 41 ×10⁻² mm |
